These results are taken from patent EP2525224A1, “VDAC1-S as a cell marker” (Centre National de la Recherche Scientifique, priority 2011, dated 2012).

Molecules are shown by their SMILES.

Common to all, as to format: cell-based
The test system of test [1] is LS174 cells. In words: Immunofluorescence of cytochrome c release. Conditions: with staurosporine. As to the method: Cells were grown on glass coverslips and then fixed in 3.3% paraformaldehyde for 30 min at room temperature (RT), permeabilized with 0.2% Triton X-100 for 5 min. Cells were blocked with phosphate-buffered saline (PBS) containing 0.2% gelatin, 2% bovine serum albumin for 30 min at RT, and incubated with anti-rabbit HIF-1α (1/1000 - described in "Immunoblotting"), and/or anti-mouse cyto. c (1/500 - BD Bioscience) or anti-rabbit VDAC (1/400 - Abcam) antibodies in PBS for 3 h at RT. After washing, cells were incubated in the presence of a biotinylated anti-mouse secondary antibody conjugated to Alexa 594 (1:400) or anti-rabbit secondary antibody conjugated to Alexa 488 (1:400) for 1 h at RT (Invitrogen). After washing, coverslips were mounted in Cytifluor (Amersham Biosciences), detection of the fluorescence was performed with a Leica DMR fluorescence microscope, and images were recorded using RSImage software.

Test [2] deals with LS174 cells. Description: Caspase 3/7 activity (Caspase-Glo 3/7). Conditions: hypoxic cancer cells. As to the method:
Quantification of the caspase 3/7 activity was done using a luciferin/luciferase based assay (Caspase-Glo 3/7 kit, Promega) according to the manufacture's instructions. Each condition was performed 8 times and the entire experiment was done 3 times. Significant differences are based on the Student's t test * p < 0.005. To test ABT-737 (Hickman et al., 2008, J Neurophysiol 99, 1515), LS 174 cells were cultured for 72 h in normoxia (N) or hypoxia 1% O2 (H 1 %) and ABT was then added for 24 h at different concentrations (0, 2 or 10 µM). Staurosporine (1 µg/ml) was added (+ Stau) 4 h prior to assay for caspase 3/7 activity, […]

Test [3] has as its system LS174 cells. Description: Flow cytometric analysis of mitochondrial transmembrane potential (ΔΨm) with DiOC6(3). Conditions: staurosporine 1 µM for 18h. Here is the method: The following fluorochromes were employed to determine mitochondrial function by cytofluorometry: 3,3'-dihexyloxacarbocyanine iodide [DiOC6(3), 50 nM (Invitrogen) for mitochondrial transmembrane potential (ΔΨm) quantification and propidium iodide (PI; 1 µg/ml (Sigma) for determination of cell viability (all from Molecular Probes). Cells were trypsinized and labeled with the fluorochromes at 37°C, followed by cytofluorometric analysis with a fluorescence-activated cell sorter (FACS) scan (Becton Dickinson). The fluorescence intensity of DiOC6 (3) (which measures ΔΨm) is plotted against the propidium iodide signal ([…]). The CellQuest software (Becton Dickinson) was used for the data analysis.
A general note: Flow cytometry measures light scatter and fluorescence of single cells or particles in a stream.

Consider `CN[C@@H]1C[C@H]2O[C@@](C)([C@@H]1OC)n1c3ccccc3c3c4c(c5c6ccccc6n2c5c31)C(=O)NC4` [staurosporine], for which the figures for the “release of mitochondrial cytochrome c into the cytoplasm” value in the test with LS174 cells [1] (hypoxic cells with enlarged mitochondria) and in the test with LS174 cells [1] (normoxia) were “do not show release of cyto. c” and “released mitochondrial cytochrome c (cyto. c) into the cytoplasm”, respectively. For the same compound, the induced apoptosis entry in the test with LS174 cells [2] is “resistant”. Further, the ΔΨm entry with LS174 cells [3] (hypoxia 1 % O2 for 72h) is given as “remained unaffected”; in the test on LS174 cells [3] (normoxia), “decreased”.

`COc1cc([C@@H]2c3cc4c(cc3[C@@H](O[C@@H]3O[C@@H]5CO[C@@H](C)O[C@H]5[C@H](O)[C@H]3O)[C@H]3COC(=O)[C@H]23)OCO4)cc(OC)c1O` [etoposide]: the induced apoptosis entry in the test with LS174 cells [2] is on record as “resistant”.
